{"source": "patent US20060063930A1", "about": "“Compositions and methods comprising proteinase activated receptor antagonists” (priority 2004, published 2006)", "key": {"[1]": {"test_system": "PAR-2", "assay": "PAR signalling activity: calcium mobilization (Fluo-4) in response to peptide", "format": "cell-based", "details": "FIGS. 2A-2C", "experimental": "Confluent HUVECs, Lewis lung carcinoma cells or U87-MG glioma cells or HT29 colon carcinoma cells were loaded for 30-60 minutes with the fluorescent dye Fluo-4. Final concentration 4 uM Fluo-4, 0.02% pluronic acid in physiological buffer. Cells were then washed with assay buffer, (HBSS containing 1 mM CaCl2, 1 mM MgSO4, and 2.5 mM probenecid). Cells were stimulated with various doses of PAR-2 activating peptide, PAR-1 activating peptide or ATP. Fluorescence was monitored using a Wallac 1470 fluorescent plate reader. (See Al-ani et. al Journal of Pharmacology and Experimental Therapeutics 290:2, 753-760)\nCalcium mobilization curves of the PAR-2 agonist SLIGKV (ENMD-1003) (SEQ ID NO:52) compared with two truncated molecules LIGK (ENMD-1005) (SEQ ID NO:1) and LIGKV (ENMD-1007) (SEQ ID NO:2) are provided in FIG. 2A. […] Similar studies were performed on alanine substituted SLIGKV (ENMD-1003) (SEQ ID NO:52) peptides (FIGS. 2B and 2C)."}, "[2]": {"test_system": "ATP signaling", "assay": "Inhibition of ATP calcium signaling in pretreated cells", "format": "cell-based", "details": "cells pretreated with antagonist", "experimental": "(§1) In order to assess the potential of peptides and molecules selected above to block PAR-2 signaling, cells were pretreated with potential antagonist peptides for a predetermined amount of time and were subsequently treated with various GPCR agonists. Confluent Lewis lung carcinoma (LLC) cells were loaded for 30-60 minutes with the fluorescent dye Fluo-4. Final concentration 4 uM Fluo-4, 0.02% pluronic acid in physiological buffer. Cells were then washed with assay buffer, (HBSS containing 1 mM CaCl2, 1 mM MgSO4, and 2.5 mM probenecid). Cells were stimulated with various doses of PAR-2 activating peptide, PAR-1 activating peptide or ATP. Fluorescence was monitored using a Wallac 1470 fluorescent plate reader. (See Al-ani et. al Journal of Pharmacology and Experimental Therapeutics 290:2, 753-760). Additional compound screening was performed using U87-MG human glioma cells. In this assay cells were labeled with FLIPR Calcium 3 dye (Component A), which was dissolved in 10 mls of Assay Buffer without Probenecid. Loading buffer was prepared by diluting Component A with an additional 90 mls of Assay Buffer without Probenecid, giving a total volume of a 100 ml. […] Calcium signaling was then measured using a Flexstation II (Molecular Devices) following manufacturer's instructions. […]"}, "[3]": {"target": "T1, PAR-1 (Homo sapiens, UniProt P25116)", "T1 construct": "endogenous in cells", "T1 sequence (P25116 22-425)": "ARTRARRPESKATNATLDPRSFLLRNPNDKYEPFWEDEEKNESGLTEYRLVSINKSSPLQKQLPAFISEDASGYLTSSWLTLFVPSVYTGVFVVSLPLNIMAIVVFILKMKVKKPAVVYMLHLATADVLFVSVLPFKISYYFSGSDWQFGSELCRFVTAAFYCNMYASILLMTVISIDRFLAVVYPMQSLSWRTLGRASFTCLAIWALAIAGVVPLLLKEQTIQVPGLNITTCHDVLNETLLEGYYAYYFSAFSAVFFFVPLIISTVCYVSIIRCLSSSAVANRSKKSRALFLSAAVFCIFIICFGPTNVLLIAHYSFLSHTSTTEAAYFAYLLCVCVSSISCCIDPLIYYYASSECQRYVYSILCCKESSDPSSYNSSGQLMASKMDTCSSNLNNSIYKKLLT", "assay": "Inhibition of PAR-1 activation peptide (SFLLRN) calcium signaling in pretreated cells", "format": "cell-based", "details": "cells pretreated with antagonist", "experimental": "as §1"}, "[4]": {"target": "T2, PAR-2 (Mus musculus, UniProt P55086)", "T2 construct": "from tissue; host or cells: footpad of living C57BL6 mice", "T2 sequence (P55086 26-399)": "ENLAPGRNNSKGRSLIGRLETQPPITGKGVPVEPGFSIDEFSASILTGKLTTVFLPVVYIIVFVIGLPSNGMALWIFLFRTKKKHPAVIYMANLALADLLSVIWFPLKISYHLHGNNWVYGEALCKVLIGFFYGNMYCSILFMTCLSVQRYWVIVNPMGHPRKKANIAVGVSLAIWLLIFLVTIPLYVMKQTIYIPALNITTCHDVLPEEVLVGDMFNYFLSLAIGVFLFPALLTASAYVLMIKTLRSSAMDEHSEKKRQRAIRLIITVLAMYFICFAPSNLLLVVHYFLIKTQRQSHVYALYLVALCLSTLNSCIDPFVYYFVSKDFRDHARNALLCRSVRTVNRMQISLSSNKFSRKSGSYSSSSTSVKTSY", "assay": "PAR-2 agonist peptide induced murine footpad edema model", "format": "in vivo", "details": "co-treatment in footpad, C57BL6 mice, 1 hour", "experimental": "C57BL6 mice were injected with 5-25 μg of SLIGKV (ENMD-1003) (SEQ ID NO:52) into their footpad, in the presence or absence of increasing amounts of various PAR-2 antagonists. One hour later, footpad (tarsus) thickness was measured to quantify inflammation (edema).\nThe inventors next assessed whether the LIGK (ENMD-1005) (SEQ ID NO:1) peptide had in vivo PAR-2 antagonistic activity. This was studied using an edema model where vascular permeability was induced by the PAR-2 agonist peptide. In this model, the PAR-2 peptide induces severe edema as previously reported (FIG. 6). This vascular response was blocked by co-treatment with the PAR-2 antagonist LIGK (ENMD-1005) (SEQ ID NO:1) (FIG. 6). Thus, LIGK (ENMD-1005) (SEQ ID NO:1) functions in vivo to block PAR-2 signaling."}, "[5]": {"test_system": "BALB/c mice, LPS induced weight loss", "assay": "Arthrogen-CIA induced body weight loss in mice", "format": "in vivo, mouse", "details": "200 mg/kg/day intraperitoneally for 7 days", "experimental": "(§2) On day 0, BALB/c mice were injected i.v. with the 1-2 mg 1B11 monoclonal anti-collagen II antibody. On day 1, animals were injected intraperitoneally with 20 μg LPS, and treatment with PAR-2 antagonists (200 mg/kg/day intraperitoneally) for 7 days. After treatment was completed, disease is quantified by measuring the thickness (swelling) in both hind feet of the mouse. This was compared to untreated mice. This model results in significant weight loss associated with the administration of LPS."}, "[6]": {"test_system": "PAR-2", "assay": "Inhibition of PAR-2 activating peptide (AP2) calcium signaling in cells pretreated with antagonist", "format": "cell-based, human", "design": "key to PAR-2 AP2 Signaling Treated/Control (T/C) / PAR-2 AP2 Signaling Treated/Control: AUC of calcium mobilization, treated ÷ control wells", "details": "for PAR-2 antagonist activity in vitro (in words): pretreated cells, then P2AP; for PAR-2 AP2 Signaling Treated/Control: mimetic antagonists; for PAR-2 AP2 Signaling Treated/Control / PAR-2 AP2 Signaling Treated/Control (T/C): AUC of calcium mobilization treated/control, initially screened at 1 mM compound; for PAR-2 AP2 Signaling Treated/Control (T/C): peptides", "method_in_brief": "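LLC cells loaded with Fluo-4 (4 uM final), and U87-MG glioma cells loaded with FLIPR Calcium 3 dye with 2.5 mM probenecid, were pretreated with antagonist, then stimulated with PAR-2 activating peptide. Initial screening was at 1 mM. Calcium AUC of treated over control wells is reported as T/C.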"}, "[7]": {"test_system": "BALB/c mice, arthritis", "assay": "Anti-collagen II antibody/LPS arthritis in mice (hind feet thickness)", "format": "in vivo, mouse", "details": "200 mg/kg/day intraperitoneally for 7 days", "experimental": "as §2, with “intravenously” for “i.v.”, “mg/kg/day,” for “mg/kg/day”, “mice (p<0.05 vs. vehicle control).” for “mice. This model results in significant weight loss associated with the administration of LPS.”"}, "[8]": {"test_system": "angiogenesis in Matrigel plug, C57/BL6 mice", "assay": "In vivo Matrigel angiogenesis assay (FGF-2, hemoglobin content in the plug)", "design": "species or system mouse", "details": "subcutaneously daily for 6 days"}}, "note": "Where no end group is shown, it is not given here. [ ]: non-standard residue; d: D form.", "data": [{"compound": "SLIGKA [ENMD-1013]", "values": [{"measurement": "Calcium mobilization / PAR-2 signaling activity (in words)", "setting": "[1]", "result": "robust signaling activity"}]}, {"compound": "LIGK [ENMD-1005]", "values": [{"measurement": "Inhibitory effect on ATP signaling", "setting": "[2]", "result": "no inhibitory effect"}, {"measurement": "Inhibitory effect on PAR-1 signaling", "setting": "[3]", "result": "no inhibitory effect"}, {"measurement": "Effect on PAR-2 peptide induced edema (vascular response)", "setting": "[4]", "result": "blocked"}, {"measurement": "Effect on LPS induced weight loss", "setting": "[5]", "result": "abrogated this LPS induced weight loss"}, {"measurement": "Block of AP2 signaling", "setting": "[6]; 1 mM LIGK against 100 uM SLIGKV (FIG. 3)", "result": "completely blocked"}, {"measurement": "IC50", "setting": "[6]; AP2 stimulated HT29 cells (FIG. 4)", "result": "< 500", "unit": "µM"}, {"measurement": "PAR-2 antagonist activity in vitro (in words)", "setting": "[6]", "result": "demonstrated antagonist activity"}, {"measurement": "Effect on inflammation / arthritis", "setting": "[7]", "result": "inhibited inflammation"}, {"measurement": "Inhibition of angiogenesis (hemoglobin content in the plug)", "setting": "[8]; highest dose", "result": "more than 80%"}, {"measurement": "Inhibition of angiogenesis (in words)", "setting": "[8]", "result": "dose dependent inhibition of angiogenesis"}, {"measurement": "Calcium mobilization / PAR-2 signaling activity (in words)", "setting": "[1]", "result": "Neither truncated molecule was able to induce calcium mobilization"}]}, {"compound": "LIGKV [ENMD-1007]", "values": [{"measurement": "PAR-2 antagonist activity in vitro (in words)", "setting": "[6]", "result": "demonstrated antagonist activity"}, {"measurement": "Calcium mobilization / PAR-2 signaling activity (in words)", "setting": "[1]", "result": "Neither truncated molecule was able to induce calcium mobilization"}]}, {"compound": "Br.CC(C)CC(=O)N1CCN(C(=O)CCCCCN)CC1", "note": "[ENMD-1068, 1-(4-(3-methylbutanoyl)piperazin-1-yl)-(6′-aminohexan-1-amide) hydrobromide]", "values": [{"measurement": "Inhibitory effect on ATP signaling", "setting": "[2]", "result": "no inhibitory effects"}, {"measurement": "Inhibitory effect on PAR-1 signaling", "setting": "[3]", "result": "no inhibitory effects"}, {"measurement": "PAR-2 AP2 Signaling Treated/Control", "setting": "[6]", "result": 0.58}, {"measurement": "PAR-2 antagonist activity in vitro (in words)", "setting": "[6]", "result": "inhibitor of PAR-2 signaling in vitro"}, {"measurement": "Effect on inflammation / arthritis", "setting": "[7]", "result": "inhibited inflammation"}]}, {"compound": "LIGN [ENMD-1047]", "values": [{"measurement": "PAR-2 AP2 Signaling Treated/Control (T/C)", "setting": "[6]", "result": 0.88}]}, {"compound": "SLIAKV [ENMD-1011]", "values": [{"measurement": "Calcium mobilization / PAR-2 signaling activity (in words)", "setting": "[1]", "result": "robust signaling activity"}]}, {"compound": "SLIGKV [ENMD-1003, reference compound]", "values": [{"measurement": "Calcium mobilization / PAR-2 signaling activity (in words)", "setting": "[1]", "result": "typical spike of calcium release followed by degradation of signal"}]}, {"compound": "LIGM [ENMD-1064]", "values": [{"measurement": "PAR-2 AP2 Signaling Treated/Control (T/C)", "setting": "[6]", "result": 1.19}]}, {"compound": "NCCCCCCNC(=O)c1cccn1CC1CCCCC1", "note": "[ENMD-1540, N-(6-aminohexyl)-1-(2-cyclohexylmethyl)-2-pyrrolecarboxamide]", "values": [{"measurement": "PAR-2 AP2 Signaling Treated/Control", "setting": "[6]", "result": 0.05}]}, {"compound": "LIG-dK (LIG[dK]) [ENMD-1384]", "values": [{"measurement": "PAR-2 AP2 Signaling Treated/Control (T/C)", "setting": "[6]", "result": 0.16}]}, {"compound": "Cl.N[C@@H]1CCC[C@H](C(=O)N2CCN(C(=O)CC3CCCCC3)CC2)C1", "note": "[ENMD-1774, N^1-2-cyclohexylethanoyl-N-4-cis-3-amino-cyclohexane-carbonyl piperazine hydrochloride]", "values": [{"measurement": "PAR-2 AP2 Signaling Treated/Control", "setting": "[6]", "result": 0.75}]}, {"compound": "O=C(NCCC1CCNCC1)c1cnc(NCC2CCCCC2)cn1", "note": "[ENMD-1572, 4-(piperidinethyl)-6-cyclohexanemethylamino-2-pyrazine amide]", "values": [{"measurement": "PAR-2 AP2 Signaling Treated/Control", "setting": "[6]", "result": 0.10}]}]}
